Assay results reported in patent US20040071718A1, “Local nasal immunotherapy for allergen-induced airway inflammation” (priority 2002, published 2004).
Marks after values point to notes of the source that are not given here.

Experiments:
Type in all cases: in vivo
Balb/c mice [1] = test: IL-5 and IFN-γ levels in sera and BALF (ELISA) after LNIT; settings: for IL-5 levels in sera: Example 1, FIG. 3A; for IFN-γ levels in sera: Example 1, FIG. 3B; for IFN-γ / IL-5: Example 2, mean ± SEM, n = 6
Procedure: (§1) Male Balb/c mice were obtained from the National Laboratory Breeding Research Center in Taiwan and were raised in a specific pathogen-free environment. The mice used were between six and eight weeks of age. Groups of six mice were caged separately according to their treatment.
(§2) Mice were immunized by way of an intraperitoneal (IP) injection of 1 μg/0.1 mL rDp2 emulsified in 4.0 mg/0.062mL aluminum hydroxide Al(OH)3 (Whitehall Lab Ltd. Punchbowl, NSW, Australia) on day 0 and day 7. Following immunization, local nasal immunotherapy (LNIT) was conducted daily from day 14 to day 35 with Dp2 28-40, Dp2 28-40A, FIP alone or FIP mixed with either Dp2 28-40 or Dp2 28-40A (FIP, 50 μg/mouse/day; Dp2 peptide, 1 μg/20 μL) in PBS with 10% glycerol. Normal saline (NS) and irrelevant allergen Bt were used as a negative control. […] On day 28, mice were lightly anesthetized with an IP injection of 60 mg/kg of sodium pentobarbital (Sigma Chemical Co., St Louis, Mo., U.S.A.) and inoculated intratracheally (IT) with 1 μg/50 μL of rDp 2 on day 28 and day 35. Two days subsequent to the second IT inoculation, the mice were sacrificed following the assessment of their pulmonary function (FIG. 1).
IFN-γ and IL-5 were measured using commercially-available ELISA kits, using a specific mouse monoclonal Ab that recognized different epitopes of the cytokine molecules. The lowest detector range was 10 pg/mL. Given that the BALF was considered to be at too diluted a concentration, IL-4 was not measured.

Balb/c mice [2] = test: Leukocyte subpopulations in BALF of rDp2-sensitized mice after local nasal immunotherapy (LNIT); settings: for Eosinophil / Lymphocyte / Macrophage / Neutrophil / Total cell: BALF; for anti-inflammatory effect on airway inflammation: Example 1, BALF inflammatory cells compared to the NS groups
Procedure: Male Balb/c mice were obtained from the National Laboratory Breeding Research Center in Taiwan and were raised in a specific pathogen-free environment. The mice used were between six and eight weeks of age. Groups of six mice were caged separately according to their treatment. Recombinant Dermatophoides pteronyssinus group 2 (rDp2) was prepared as previously described(Tsai J J, et al. Int Arch Allergy Immunol 2000;121:205-10). Dp2 28-40 and Dp2 28-40A were obtained from Dr. Jonathan Lamb (Respiratory Medicine Unit, Edinburgh University, Medical School, Edinburgh, UK) (Verhoef A, and Lamb J R. J Immunol 2000;164:6034-6040). FIP was obtained from Dr. Ko Jiunn-Liang (Institute of Toxicology, Chung Shan Medical University, Taichung, R O C) (J L Ko, et al. Eur. J. Biochem. 1995;228:244-249).
as §2
Subsequent to pulmonary function measurement having been completed, bronchoalveolar lavage (BAL) was performed using the following procedure. BAL fluids were collected with lmL sterile endotoxin-free saline washes of each lung via the trachea for each mouse. BAL cells were washed once with PBS by centrifugation at 200×g at 4° C. Subsequent to washing, the cells were resuspended in RPMI-1640 (Sigma Chemical Co.). The total leukocyte count in BAL fluids was determined using a hemocytometer. The BAL fluids were aspirated and stored at −70° C. until needed for assay purposes. Subsequent to total leukocyte counting, a cytospin preparation of 100 μL BAL fluids (2×10^5 cells/mL) was conducted, the cells being cytocentrifuged directly onto glass slides at 350 r.p.m. for five minutes using a Cytospin 3 cytocentrifuge (Shandon Scientific Limited, Astmoor, Runcorn, UK), and then stained with Liu stain (Tonyar Diagnostic Inc, Taipei & Hien, Taiwan). The differential counts were performed for a total of 200 leukocyte cells.

Balb/c mice [3] = test: Cytokine producing cells in peripheral blood (flow cytometry) after LNIT; settings: for IL-5/IFN-γ (CD4) / IL-5/IFN-γ (CD8): peripheral blood
Procedure: as §1, §2
Two-color staining methods were used to analyze IFN-γ and IL-5 expression amongst CD4 cells. Leukocytes derived from peripheral blood (PBL) were stimulated with PMA (50 ng/mL), ionomycin (2 μM) and GolgiStop (Cytofix/Cytoperm Plus Pharmingen San Diego, Calif., U.S.A.) for five hours and then washed twice using PBS. The cells were stained with CD4-PerCP, CD8-FITC or IgG1-FITC (PharMingen) at room temperature (RT) for 30 minutes and then washed. Cells were fixed with cytofix/cytoperm at RT for 30 minutes and then stained with anti-cytokine antibody and IgG2a-PE (PharMingen) at RT for 30 minutes and subsequently washed. Both IgG1-FITC and IgG2a-PE were purchased from the same manufacturer as the anticytokine antibodies and the negative controls. Cells were resuspended in 0.5 mL PBS containing 0.1% w/v sodium azide. Mean fluorescence was measured by means of Becton Diskinson flow cytometry (Becton Diskinson, Calif., U.S.A.). A total of 2,000 cells was analyzed for each sample.

Balb/c mice [4] = test: Lung pathology (HE stain) after LNIT; settings: lung tissue two days after IT with rDp2; for pathology: inflammatory cell infiltration and epithelium damage in the airway: Example 1, FIGS. 6A-6F
Text: FIGS. 6A-6F are photographs showing the pathology of different groups of mice after LNIT. The lung tissues were obtained two days after IT with rDp2. […] (HE stain, ×400).
FIGS. 9A-1˜9F-2 are photographs showing the pathology of different groups of mice following LNIT. The lung tissues were obtained two days subsequent to IT inoculation with rDp2. FIGS. 9A-1, -2: naive mice; FIGS. 9B-1, -2: NS-treated mice; FIGS. 9C-1, -2: DEX-treated mice; FIGS. 9D-1, -2: FIP-fve treated mice; FIGS. 9E-1, -2: Dp2 28-40A+FIP-fve treated mice; and FIGS. 9F-1, -2: Dp2 28-40+FIP-fve treated mice. FIGS. 9A-1, 9B-1, 9C-1, 9D-1, 9E-1 and 9F-1: HE stain, 100×; 9A-2, 9B-2, 9C-2, 9D-2, 9E-2, 9F-2: HE stain, 400×
as §2

[5] = Example 1, LNIT day 14-35, rDp2 IT challenge, mean ± SEM of six animals
[6] = Example 1, percentage of positive stained cells in the PBMC of six mice
[7] = Example 1, ratio of IL-5 to IFN-γ producing CD4 cells
[8] = Example 1, ratio of IL-5 to IFN-γ producing CD8 cells
[9] = Example 2 (FIP study), mean ± SEN of six mice
[10] = Example 2, percentage of total leukocytes in the peripheral blood of six mice

In the case of “Dp2 28-40A: altered TCR ligand of Dp2 28-40, residues at positions 34 and 36 substituted by alanine; amino acid sequence ID No. 2 (IIHRGKAFALEAV; listed as Dermatophoides pteronyssinus)”, the “IL-5 levels in sera” value (Balb/c mice [1]; compared to NS treated mice) is reported as “decreased”, the “IFN-γ levels in sera” value (Balb/c mice [1]; compared to NS treated mice) is reported as “Significantly increased” and the Eosinophil (Balb/c mice [2]; [5]) is reported as 3.0 ± 1.0* 10^4 cells/mL. The Lymphocyte (Balb/c mice [2]; [5]) was 14.6 ± 3.3* 10^4 cells/mL, the Macrophage (Balb/c mice [2]; [5]) was 38.4 ± 7.2* 10^4 cells/mL and the Neutrophil (Balb/c mice [2]; [5]) was 8.2 ± 1.1* 10^4 cells/mL. The Total cell (Balb/c mice [2]; [5]) was 65.0 ± 3.2* 10^4 cells/mL, the “anti-inflammatory effect on airway inflammation” value (Balb/c mice [2]) was “weaker than Dp2 28-40” and the “CD4^+” value (Balb/c mice [3]; [6]) was 51.8 percentage. The “CD8^+” value (Balb/c mice [3]; [6]) was 10.7 percentage, the “IFN-γ^+/CD4^+” value (Balb/c mice [3]; [6]) was 11.4 percentage and the “IFN-γ^+/CD8^+” value (Balb/c mice [3]; [6]) was 5.8 percentage. For the same molecule, the “IL-5^+/CD4^+” value (Balb/c mice [3]; [6]) was 11.4 percentage, the “IL-5^+/CD8^+” value (Balb/c mice [3]; [6]) was 3.5 percentage and the “IL-5/IFN-γ (CD4)” value (Balb/c mice [3]; [7]) was 1.0. The “IL-5/IFN-γ (CD8)” value (Balb/c mice [3]; [8]) was 0.6 and the “pathology: inflammatory cell infiltration and epithelium damage in the airway” value (Balb/c mice [4]) was “reductions in airway inflammation”.

In the case of “Dp2 28-40: Dermatophoides pteronyssinus group 2 (Dp2) epitope peptide, residues 28-40, amino acid sequence ID No. 1 (IIHRGKPFQLEAV; listed as Dermatophoides pteronyssinus)”, the “IL-5 levels in sera” value (Balb/c mice [1]; compared to NS treated mice) is reported as “decreased”, the “IFN-γ levels in sera” value (Balb/c mice [1]; compared to NS treated mice) is reported as “Significantly increased” and the “IL-5 levels in BALF” value (Balb/c mice [1]; Example 1, FIG. 3C, compared to NS treated mice) is reported as “significant reduction”. For the same molecule, the “IFN-γ levels in BALF” value (Balb/c mice [1]; Example 1, FIG. 3D, compared to NS treated mice) was “significant increase”, the Eosinophil (Balb/c mice [2]; [5]) was 3.5 ± 0.5* 10^4 cells/mL and the Lymphocyte (Balb/c mice [2]; [5]) was 11.8 ± 0.8* 10^4 cells/mL. For the same molecule, the Macrophage (Balb/c mice [2]; [5]) was 31.0 ± 2.5* 10^4 cells/mL, the Neutrophil (Balb/c mice [2]; [5]) was 7.2 ± 1.5* 10^4 cells/mL and the Total cell (Balb/c mice [2]; [5]) was 53.3 ± 4.1* 10^4 cells/mL. For the same molecule, the “anti-inflammatory effect on airway inflammation” value (Balb/c mice [2]) was “best anti-inflammatory effect”, the “CD4^+” value (Balb/c mice [3]; [6]) was 56.0 percentage and the “CD8^+” value (Balb/c mice [3]; [6]) was 9.8 percentage. For the same molecule, the “IFN-γ^+/CD4^+” value (Balb/c mice [3]; [6]) was 27.8 percentage, the “IFN-γ^+/CD8^+” value (Balb/c mice [3]; [6]) was 16.8 percentage and the “IL-5^+/CD4^+” value (Balb/c mice [3]; [6]) was 17.7 percentage. For the same molecule, the “IL-5^+/CD8^+” value (Balb/c mice [3]; [6]) was 9.5 percentage, the “IL-5/IFN-γ (CD4)” value (Balb/c mice [3]; [7]) was 0.6 and the “IL-5/IFN-γ (CD8)” value (Balb/c mice [3]; [8]) was 0.6. The “pathology: inflammatory cell infiltration and epithelium damage in the airway” value (Balb/c mice [4]) was “reductions in airway inflammation”.

B1: FIP: fungal immunomodulatory protein isolated from Flammalina velutipes, amino acid sequence ID No. 3 (protein)
chain: SATSLTFQLAVLVKKIDFDYTPNWGRGTPSSYIDNLTFPKVLTDKKYSYRVVVNGSDLGVESNFAVTPSGGQTINFLQYNKGYGVADTKTIQVFVVIPDTGNSEEYIIAEWKKT
modifications: Flammalina velutipes
B1 was tested, and the IFN-γ (Balb/c mice [1]; BALF) was 8.3 ± 0.4 pg/mL, the IL-5 (Balb/c mice [1]; BALF) was 19.3 ± 1.9 pg/mL and the IFN-γ (Balb/c mice [1]; Sera) was 52.0 ± 1.9 pg/mL. The IL-5 (Balb/c mice [1]; Sera) was 77.6 ± 1.9 pg/mL, the Eosinophil (Balb/c mice [2]; [9]) was 6.3 ± 1.3 ×10^4/mL and the Lymphocyte (Balb/c mice [2]; [9]) was 13.0 ± 1.8 ×10^4/mL. For the same molecule, the Macrophage (Balb/c mice [2]; [9]) was 37.0 ± 7.4 ×10^4/mL, the Neutrophil (Balb/c mice [2]; [9]) was 9.0 ± 2.4 ×10^4/mL and the Total cell (Balb/c mice [2]; [9]) was 65.0 ± 10.5 ×10^4/mL. For the same molecule, the “airway-inflammation level (cellular component in BALF)” value (Balb/c mice [2]; Example 2, text summary of Table 3) was “diminish the airway-inflammation level”, the CD4 (Balb/c mice [3]; [10]) was 29.1 percentage and the CD8 (Balb/c mice [3]; [10]) was 7.0 percentage. The “IFN-γ^+/CD4^+” value (Balb/c mice [3]; [10]) was 13.7 percentage, the “IFN-γ^+/CD8^+” value (Balb/c mice [3]; [10]) was 5.0 percentage and the “IL-5^+/CD4^+” value (Balb/c mice [3]; [10]) was 12.6 percentage. For the same molecule, the “IL-5^+/CD8^+” value (Balb/c mice [3]; [10]) was 8.4 percentage, the “IL-5/IFN-γ (CD4)” value (Balb/c mice [3]; Example 2, ratio, CD4 cells) was 0.9 and the “IL-5/IFN-γ (CD8)” value (Balb/c mice [3]; Example 2, ratio, CD8 cells) was 1.7. The “pathology: inflammatory-cell infiltration and epithelial damage in the airways” value (Balb/c mice [4]; Example 2, FIGS. 9A-9F) was “reduction in the level of airway inflammation”.
